Data taken from publication PMC8966664 (Frontiers in Pharmacology, 2022).

What was measured:
Type in all cases: in vivo, Sprague Dawley rats
pyrrole-protein adducts = assay: Formation of pyrrole-protein adducts in liver and serum/plasma of RTS-treated rats
Description: (§1) EX and GA were dissolved in distilled water at 37°C for oral administration with the dosage of EX and GA as 500 mg/kg and 50 mg/kg. […] RTS was given following the last dose of distilled water/GA/EX. Detailed dosage regimens are described in Supplementary Figure S2. All rats were sacrificed at 48 h after the last dosing. Serum and liver samples were collected and stored at −80°C until use.
The pyrrole-protein adducts were measured according to our previously developed method ([Lin et al., 2011]; [Ruan et al., 2014]). Briefly, 50 mg liver or 100 µL serum/plasma was mixed with acetone and centrifuged at 900 x g for 10 min. The precipitated protein was treated with silver nitrate (20 mg/ml) in ethanol containing 5% trifluoroacetic acid to release pyrrole moiety from the pyrrole-protein adducts. After centrifugation, an aliquot of the supernatant was incubated with 4-dimethylaminobenzaldehyde (20 mg/ml) at 56°C for 10 min. The mixture was filtered and subjected to LC-MS/MS analysis. 7,9-diGS-DHP was used as a standard with a concentration ranging from 0.2 to 2000 nM and underwent the same preparation process to construct a calibration curve. […] After centrifuging at 20,000 x g for 30 min, the supernatants were collected and analyzed by LC-MS/MS according to our previously developed methods ([Ma et al., 2019]; [He et al., 2021a]; [Ma et al., 2021]).
The LC-MS/MS analysis was performed on an Agilent 6460 Triple Quadrupole LC/MS System using a Waters Acquity BEH C18 column (2.1 × 100 mm, […]). For the detection of pyrrole-protein adducts, the mobile phase of water containing 0.1% formic acid (A) and acetonitrile containing 0.1% formic acid (B) was used with a gradient elution as follows: 0–5 min, 35–95% B; 5.5–6 min, 95–35% B. The flow rate was 0.3 ml/min. The injection volume was 3 μL. […] The injection volume was 5 µL. The mass spectrometer was operated in multiple reactions monitoring for data acquisition.

RTS-induced liver damage = assay: Histological examination (H&E) and scoring of liver damage, modified DeLeve's system; design: key to Central vein endothelial damage / Sinusoidal hemorrhage / Sinusoidal dilation / Coagulative necrosis / Apoptotic bodies / Subendothelial fibrosis / Sinusoid fibrosis / Subendothelial hemorrhage: 0-absent; 1-mild; 2-moderate; 3-severe; conditions: rats
Description: as §1
The largest lobe of the liver was sliced, fixed in 10% buffered-neutral formalin for 24 h, and embedded in wax. Sections of 5 µm in thickness were subjected to hematoxylin and eosin staining before being examined. Liver injury (necrosis, endothelial cell damage, and hemorrhage) was evaluated with a LEICA DM5000B Microscope (Leica, Heidelberg, Germany).
Protective effects of EX and GA on RTS-induced hepatotoxicity were also evaluated by histopathological examination. […] The damage of sinusoidal endothelial cells was further measured by the immunofluorescence of RECA-1. […] The degrees of hemorrhage, sinusoidal dilation, and necrosis were assessed and scored (Table 2) according to a modified DeLeve’s system ([Deleve et al., 1999]) as summarized in Supplementary Table S3.

RTS-induced liver injury = assay: Serum ALT, hepatic MDA and GSH in RTS-induced liver injury; conditions: rats
Description: as §1
The serum alanine transaminase (ALT) level was measured by a kit obtained from Sigma-Aldrich Chemical Co. (St. Louis, MO, United States). The total bilirubin level was measured by the QuantiChromTM Bilirubin Assay kit according to the manufacturer’s instructions (BioAssay Systems, Hayward, CA, United States). Hepatic malondialdehyde (MDA) level was measured using a kit obtained from Nanjing Jiancheng Bioengineering Institute (Nanjing, China). Total GSH content in the liver was measured following a standard spectrophotometric method using Ellaman’s reagent.

[1] = tested on: sinusoidal endothelial cells; assay: Immunofluorescence of RECA-1 in liver sections; conditions: rats; EX or GA treated groups + RTS
Description: as §1
The largest lobe of the rat liver was sliced, cold-embedded in Tissue-Tek OCT compound, and processed for immunohistochemistry according to the Abcam IHC frozen sections staining protocol. The tissue slices were incubated with rat endothelial cell antigen (RECA)-1 antibody and Alexa Fluor 488-conjugated goat anti-mouse IgG, and then stained with DAPI and observed under Olympus FluoViewTM FV1000 confocal microscope.

[2] = multiple treatment (EX 500 mg/kg or GA 50 mg/kg) + RTS
[3] = single treatment (EX 500 mg/kg or GA 50 mg/kg) + RTS
[4] = multiple dose (EX 500 mg/kg/day or GA 50 mg/kg/day, 5 consecutive days) + RTS 40 mg/kg, 48 h after last dosing
[5] = single dose (EX 500 mg/kg or GA 50 mg/kg) + RTS 40 mg/kg, 48 h after last dosing
[6] = substance alone (EX/GA single and multiple administrations; RTS single dose), 48 h

CC1(C)[C@@H](O)CC[C@]2(C)[C@H]3C(=O)C=C4[C@@H]5C[C@@](C)(C(=O)O)CC[C@]5(C)CC[C@@]4(C)[C@]3(C)CC[C@@H]12 [GA, 18β-glycyrrhetinic acid]
reduction of pyrrole-protein adducts in liver (pyrrole-protein adducts; [2]): 32.5% | reduction of pyrrole-protein adducts in plasma (pyrrole-protein adducts; [2]): 56.5% | reduction of pyrrole-protein adducts in liver (pyrrole-protein adducts; [3]): 30.3% | reduction of pyrrole-protein adducts in plasma (pyrrole-protein adducts; [3]): 50.8% | Apoptotic bodies (RTS-induced liver damage; EX, GA or RTS alone): 0 | Central vein endothelial damage (RTS-induced liver damage; EX, GA or RTS alone): 0 | Coagulative necrosis (RTS-induced liver damage; EX, GA or RTS alone): 0 | Overall (sum of the scores from all individual parameters) (RTS-induced liver damage; EX, GA or RTS alone): 0 | Sinusoid fibrosis (RTS-induced liver damage; EX, GA or RTS alone): 0 | Sinusoidal dilation (RTS-induced liver damage; EX, GA or RTS alone): 0 | Sinusoidal hemorrhage (RTS-induced liver damage; EX, GA or RTS alone): 0 | Subendothelial fibrosis (RTS-induced liver damage; EX, GA or RTS alone): 0 | Subendothelial hemorrhage (RTS-induced liver damage; EX, GA or RTS alone): 0 | RTS-induced hemorrhage and necrosis (RTS-induced liver damage; both single and multiple doses + RTS): significantly ameliorated | Apoptotic bodies (RTS-induced liver damage; [4]): 0 | Central vein endothelial damage (RTS-induced liver damage; [4]): 1 | Coagulative necrosis (RTS-induced liver damage; [4]): 0 | Overall (sum of the scores from all individual parameters) (RTS-induced liver damage; [4]): 2-5 | Sinusoid fibrosis (RTS-induced liver damage; [4]): 0 | Sinusoidal dilation (RTS-induced liver damage; [4]): 1-2 | Sinusoidal hemorrhage (RTS-induced liver damage; [4]): 0-1 | Subendothelial fibrosis (RTS-induced liver damage; [4]): 0 | Subendothelial hemorrhage (RTS-induced liver damage; [4]): 0-1 | Apoptotic bodies (RTS-induced liver damage; [5]): 0 | Central vein endothelial damage (RTS-induced liver damage; [5]): 1 | Coagulative necrosis (RTS-induced liver damage; [5]): 1 | Overall (sum of the scores from all individual parameters) (RTS-induced liver damage; [5]): 6-7 | Sinusoid fibrosis (RTS-induced liver damage; [5]): 0 | Sinusoidal dilation (RTS-induced liver damage; [5]): 2 | Sinusoidal hemorrhage (RTS-induced liver damage; [5]): 1 | Subendothelial fibrosis (RTS-induced liver damage; [5]): 0 | Subendothelial hemorrhage (RTS-induced liver damage; [5]): 1-2 | histopathological examination of liver (RTS-induced liver damage; substance alone): No obvious liver damage | RTS-induced hepatic GSH elevation (RTS-induced liver injury; EX or GA treatment + RTS, especially multiple dosage regimens): attenuated | RTS-induced hepatic MDA elevation (RTS-induced liver injury; multiple doses + RTS 40 mg/kg): significantly attenuated | RTS-induced serum ALT elevation (RTS-induced liver injury; multiple doses + RTS 40 mg/kg): significantly attenuated | RTS-induced hepatic MDA elevation (RTS-induced liver injury; single dose + RTS 40 mg/kg): significantly reduced | RTS-induced serum ALT elevation (RTS-induced liver injury; single dose + RTS 40 mg/kg): significantly reduced | hepatic MDA level compared with vehicle (RTS-induced liver injury; [6]): unchanged | serum ALT level compared with vehicle (RTS-induced liver injury; [6]): unchanged | RTS-induced damage of sinusoids (RECA-1 immunofluorescence) [1]: significantly less
